Test results as given in PMC9416253, “Automated Radiosynthesis, Preliminary In Vitro/In Vivo Characterization of OncoFAP-Based Radiopharmaceuticals for Cancer Imaging and Therapy” (Pharmaceuticals, 2022).
Where two headings read alike, the source gives them in different places. Values belong to the molecule of their own block, whether it stands above or below them.

Key:
[1] = molecular target: FAP; design: method as in PMID 33850024; settings: read-out: dissociation constant; cited from earlier work
[2] = molecular target: T1, recombinant hFAP (Homo sapiens, UniProt Q12884); assay: Co-elution experiment with recombinant hFAP on PD-10 size exclusion columns; assay type: binding; settings: 500 kBq radioligand, hFAP 2 μM 100 μL, PD-10 column
T1 sequence (Q12884 1-760): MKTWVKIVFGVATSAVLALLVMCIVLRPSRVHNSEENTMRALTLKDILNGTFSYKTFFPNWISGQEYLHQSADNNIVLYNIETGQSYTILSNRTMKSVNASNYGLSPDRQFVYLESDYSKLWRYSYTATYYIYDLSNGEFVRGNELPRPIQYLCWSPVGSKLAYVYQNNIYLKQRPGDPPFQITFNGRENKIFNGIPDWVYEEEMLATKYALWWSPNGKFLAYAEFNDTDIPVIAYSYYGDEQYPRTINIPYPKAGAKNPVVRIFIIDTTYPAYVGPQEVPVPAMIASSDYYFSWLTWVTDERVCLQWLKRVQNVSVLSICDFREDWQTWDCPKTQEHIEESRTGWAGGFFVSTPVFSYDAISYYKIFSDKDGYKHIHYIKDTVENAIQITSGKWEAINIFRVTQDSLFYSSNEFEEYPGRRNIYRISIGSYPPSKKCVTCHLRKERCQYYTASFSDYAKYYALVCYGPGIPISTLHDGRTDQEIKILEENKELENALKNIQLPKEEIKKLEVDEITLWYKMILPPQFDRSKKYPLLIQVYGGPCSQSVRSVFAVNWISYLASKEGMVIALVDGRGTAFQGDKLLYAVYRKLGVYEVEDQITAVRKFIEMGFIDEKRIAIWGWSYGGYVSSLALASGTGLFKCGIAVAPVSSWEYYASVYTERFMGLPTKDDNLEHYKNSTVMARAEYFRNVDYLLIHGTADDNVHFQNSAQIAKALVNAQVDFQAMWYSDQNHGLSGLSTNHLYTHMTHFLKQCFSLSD
Experimental: To assess the binding properties of radiolabeled OncoFAP-derivatives preparations to hFAP, [^68Ga]/[^18F]AlF/[^177Lu]-OncoFAP derivatives (500 kBq) were incubated with hFAP (2 μM, 100 μL) and then loaded on PD-10 columns, pre-equilibrated with running buffer (50 mM Tris, 100 mM NaCl, and 1 mM ethylenediaminetetraacetic acid [EDTA], pH = 7.4) and eluted with running buffer. Fractions of the flow through (500 μL) were collected, and the radioactivity intensity was measured immediately on a gamma counter (λ = 511 KeV for gallium-68 and fluorine-18 and λ = 208 KeV for lutetium-177).

[3] = molecular target: hCAIX (Homo sapiens, UniProt Q16790); assay: Co-elution experiment with hCAIX (non-target protein) on PD-10 columns; assay type: binding; settings: PD-10 column
Experimental: NODAGA-OncoFAP labeling with 177Lu and characterization
Figure S1. (A) Radiolabeling reaction scheme of OncoFAP-NODAGA with 177Lu in acetate buffer (pH=4) at 95°C for 15 min. (B) Coelution experiment of [177Lu]Lu-NODAGA-OncoFAP-with hFAP and hCAIX on PD-10 size exclusion chromatography columns. (C) Radio-HPLC analysis performed after labeling reaction.
NODAGA-OncoFAP can be efficiently labeled with 177Lu by heating at 95°C in acetate buffer (pH=4) for 15 min. [Figure S1A] […]
been observed. [Figure S1C] […]

[4] = Lipophilicity by shake-flask method (n-octanol/saline or PBS); assay type: physicochemical; settings: room temperature; for LogD7.4: n-octanol/PBS; for LogP: n-octanol/saline solution
Experimental: Lipophilicity was determined by partitioning between n-octanol and saline solution (LogP) or PBS (LogD7.4) at room temperature using the conventional shake-flask method. An aliquot of the formulated solution containing ~500 kBq of radiopharmaceuticals was added to a tube containing 6 mL of n-octanol/saline solution or n-octanol/PBS (1:1 v/v, LogP or LogD7.4, respectively). The tubes were shaken for 20 min, followed by centrifugation (5000× g for 5 min) and separation of the phases. Aliquots of 1 mL of the organic and the aqueous phases were taken, and the activity was measured using an automated gamma counter. The LogP or LogD7.4 were calculated as the decadic logarithm of [activity (cpm/mL) in n-octanol]/[(activity (cpm/mL) in saline solution or PBS].

[5] = test system: SK-RC-52.hFAP cells; assay: Cell binding assay on FAP-positive SK-RC-52.hFAP cells; assay type: cell-based; settings: 0.1 MBq, 37 °C, 1.5 × 10^5 cells each tube
Experimental: Cell binding assays were performed in triplicate on SK-RC-52.hFAP and SK-R-RC-52.wt cells (density of 1.5 × 10^5 cells each tube), growth in RPMI-1640 medium (Gibco) containing 10% Fetal Bovine Serum (Gibco) and 1% Antibiotic-Antimycotic (Gibco) at 37 °C in 5% carbon dioxide (CO2). After adding [^68Ga]Ga-DOTAGA-OncoFAP, [^177Lu]Lu-DOTAGA-OncoFAP or [^18F]AlF-NOTA-OncoFAP (10 µL, 0.1 MBq) to the culture medium, the cells were incubated at 37 °C for 10, 30, 60 min for ^68Ga-derivatives and 10, 30, 60, 120, 240 min for ^18F-derivatives or 10, 30, 60, 120, 240, 360 min and 24 and 48 h for the ^177Lu-derivative. As a control, nonspecific binding determination was carried out by incubating with the OncoFAP derivatives complex with the non-radioactive isotopes reference standard (100 µM) with the same cell lines for 5 min before incubation with the radiolabeled compounds. After incubation, the cell pellets were washed twice with 1 mL of cold PBS (pH 7.4), centrifuged (400× g, 5 min) and the pellet measured by an automatic gamma counter (WIZARD2, PerkinElmer, Waltham, MA, USA).

[6] = test system: HT-1080.hFAP tumors; assay: In vivo biodistribution in mice bearing subcutaneous HT-1080.hFAP tumors
Experimental: Tumor cells were grown to 80% confluence in Dulbecco’s Modified Eagle Medium (DMEM) supplemented with 10% Fetal Bovine Serum (Thermofisher, Waltham, MA, USA) and 1% antibiotic-antimycotic (Gibco) and detached with Trypsin-EDTA 0.05%. HT-1080.hFAP, cells (FAP positive cells) were resuspended in Hanks’ Balanced Salt Solution medium. Aliquots of 5 × 10^6 cells (100 μL of suspension) were injected subcutaneously in the right flanks of female athymic Balb/c AnNRj-Foxn1 mice (6 to 8 weeks of age, Janvier-labs, Le Genest-Saint-Isle, France). Female athymic Balb/c AnNRj-Foxn1 mice (6 to 8 weeks of age) were implanted in the right flank with HT-1080.hFAP tumors as described above. Tumors were allowed to grow to an average volume of 250 mm^3. Mice were randomized (n = 5 per group) and injected intravenously with radiolabeled preparations of [^18F]AlF-NOTA-OncoFAP (10 nmol/mice; 77 kBq; RCP:89%). Mice were euthanized 1 h after the injection by CO2 asphyxiation. Organs were extracted, weighted, and radioactivity was measured with a Packard Cobra Gamma Counter. Values are expressed as percent ID/g ± SD.

[7] = test system: FAP-expressing tumor models; design: method as in PMID 34957527; settings: cited from earlier work
[8] = In vitro stability in saline solution (bulk solution), HPLC/iTLC; assay type: physicochemical
Experimental: The in vitro stability of the radiopharmaceuticals preparations in saline solution was evaluated on the bulk solution i.e., with the highest radioactive concentration. In addition, the in vitro stability of radiopharmaceutical preparations was tested by incubating 10 MBq of each radiolabeled compounds in 1 mL of human plasma at 37 °C. Small aliquots of bulk solution were analyzed by HPLC and iTLC and 10 µL of plasma solution were analyzed by iTLC at 30, 60, 90, 120, 150 and 180 min for [^68Ga]Ga-DOTAGA/NODAGA-OncoFAP derivatives, 50, 100, 150 and 200-min for [^18F]AlF-NOTA/NODAGA-OncoFAP or 1, 3, 6, 12, 24, and 2, 3, 4, 7 and 9 days for [^177Lu]Lu-DOTAGA-OncoFAP, as show in Figure 3.

[9] = test system: FAP-positive tumor; design: method as in PMID 35589404; settings: cited from earlier work
[10] = 1-h time point, 500 nmol/kg i.v.

LogD7.4 [4]: -2.88±0.16
LogP [4]: -3.02± 015
SMILES: N#C[C@@H]1CC(F)(F)CN1C(=O)CNC(=O)c1ccnc2c(NC(=O)CCC(=O)NCCNC(=O)CCC(C(=O)O)N3CCN(CC(=O)[O-])CCN(CC(=O)[O-])CC3)cccc12.[18F][Al+2] (stereo partly shown) [[^18F]AlF-NODAGA-OncoFAP]

complex formation with recombinant hFAP (co-elution) [2]: forms a stable complex
LogD7.4 [4]: -2.39 ± 0.12
LogP [4]: -2.57± 0.15
SMILES: N#C[C@@H]1CC(F)(F)CN1C(=O)CNC(=O)c1ccnc2c(NC(=O)CCC(=O)NCCNC(=O)CCC(C(=O)O)N3CCN(CC(=O)[O-])CCN(CC(=O)[O-])CCN(CC(=O)[O-])CC3)cccc12.[68Ga+3] (stereo partly shown) [[^68Ga]Ga-DOTAGA-OncoFAP]
tumor-to-blood ratio ([7]; at 1 h p.i.): 8.6 ± 5.1
tumor-to-blood ratio ([7]; at 3 h p.i.): 38.1 ± 33.1

radiolysis ([8]; every 24 h, without gentisic acid): about 10%
stability at high radioactive concentrations ([8]; in words, without stabilizer): intrinsic instability
radiolysis ([8]; within 8 days, with addition of 20 mg of gentisic acid as radical scavenger): about 2%
LogD7.4 [4]: -1.85± 0.05
LogP [4]: -2.01± 0.08
SMILES: N#C[C@@H]1CC(F)(F)CN1C(=O)CNC(=O)c1ccnc2c(NC(=O)CCC(=O)NCCNC(=O)CCC(C(=O)O)N3CCN(CC(=O)[O-])CCN(CC(=O)[O-])CCN(CC(=O)[O-])CC3)cccc12.[177Lu+3] (stereo partly shown) [[^177Lu]Lu-DOTAGA-OncoFAP]
uptake in the FAP-positive tumor ([9]; 10 min after injection): 32 % injected dose [ID]/g
tumor uptake ([9]; at 24 h p.i.): ~ 4 % ID/g
sustained uptake in the lesions ([9]; over the first 6 h time window): higher than 20 % ID/g

More lines, now with the values behind:

SMILES: N#C[C@@H]1CC(F)(F)CN1C(=O)CNC(=O)c1ccnc2c(NC(=O)CCC(=O)O)cccc12 [OncoFAP]
Kd [1]: 0.68 nM

SMILES: N#C[C@@H]1CC(F)(F)CN1C(=O)CNC(=O)c1ccnc2c(NC(=O)CCC(=O)NCCNC(=O)CCC(C(=O)[O-])N3CCN(CC(=O)[O-])CCN(CC(=O)[O-])CC3)cccc12.[177Lu+3] (stereo partly shown) [[177Lu]Lu-NODAGA-OncoFAP]
complex formation with recombinant hFAP (co-elution) [2]: strong affinity
interaction with hCAIX (co-elution) [3]: no significant interaction

SMILES: N#C[C@@H]1CC(F)(F)CN1C(=O)CNC(=O)c1ccnc2c(NC(=O)CCC(=O)N3CCN(C(=O)CN4CCN(CC(=O)[O-])CCN(CC(=O)[O-])CC4)CC3)cccc12.[18F][Al+2] [[^18F]AlF-NOTA-OncoFAP]
LogD7.4 [4]: -2.01± 0.25
LogP [4]: -2.15± 0.18
absolute binding value [5]: 0.25%
tumor-to-blood ratio [6, 10]: 6.5
tumor-to-kidney ratio [6, 10]: 4.3
tumor accumulation ([6]; 1 h post intravenous injection, 500 nmol/kg, HT-1080.hFAP): 6.6 % ID/g

SMILES: N#C[C@@H]1CC(F)(F)CN1C(=O)CNC(=O)c1ccnc2c(NC(=O)CCC(=O)NCCNC(=O)CCC(C(=O)[O-])N3CCN(CC(=O)[O-])CCN(CC(=O)[O-])CC3)cccc12.[68Ga+3] (stereo partly shown) [[^68Ga]Ga-NODAGA-OncoFAP]
LogD7.4 [4]: -2.48± 0.09
LogP [4]: -2.68± 0.14

SMILES: N#C[C@@H]1CC(F)(F)CN1C(=O)CNC(=O)c1ccnc2c(NC(=O)CCC(=O)N3CCN(C(=O)CN4CCN(CC(=O)[O-])CCN(CC(=O)[O-])CC4)CC3)cccc12.[68Ga+3] [[^68Ga]Ga-NOTA-OncoFAP]
LogD7.4 [4]: -2.19± 0.11
LogP [4]: -2.38± 0.11
